Read-outs that look alike come from different tables or passages of the source.
Experiments:
[1] = system: Key Broadleaf Weed and Crop Species; assay: Post-emergent Test II herbicidal activity (Table 5); type: in vivo; settings: post-emergence, 336 h, 14 days after application; for pest or weed control at 70 g/ha: application rate 70 g ai/ha; for pest or weed control at 140 g/ha: application rate 140 g ai/ha
In short: (§1)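 Injury was rated visually 14 d after treatment on a 0–100% scale against untreated controls. Test compounds, formulated with crop oil concentrate and surfactant and serially diluted down to 1/16× of the top rate, were applied by track sprayer at 187 L/ha onto first- to second-true-leaf seedlings.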

[2] = system: Key Grass and Sedge Weeds as well as Grass Crops; assay: Post-emergent Test II herbicidal activity (Table 6); type: in vivo; settings: post-emergence, 336 h; for pest or weed control at 70 g/ha: 70 g ai/ha; for pest or weed control at 140 g/ha: 140 g ai/ha
In short: as §1

[3] = ABUTH: velvetleaf (Abutilon theophrasti), read-out: Visual Growth Reduction (%) 14 Days After Application, ABUTH
[4] = AMARE: redroot pigweed (Amaranthus retroflexus), read-out: Visual Growth Reduction (%) 14 Days After Application, AMARE
[5] = BRSNN: oilseed-rape, canola (Brassica napus), read-out: Visual Growth Reduction (%) 14 Days After Application, BRSNN
[6] = CHEAL: lambsquarters (Chenopodium album), read-out: Visual Growth Reduction (%) 14 Days After Application, CHEAL
[7] = EPHHL: wild poinsettia (Euphorbia heterophylla), read-out: Visual Growth Reduction (%) 14 Days After Application, EPHHL
[8] = HELAN: sunflower (Helianthus annuus), read-out: Visual Growth Reduction (%) 14 Days After Application, HELAN
[9] = VIOTR: wild pansy (Viola tricolor), read-out: Visual Growth Reduction (%) 14 Days After Application, VIOTR
[10] = CYPES: yellow nutsedge (Cyperus esculentus), read-out: Visual Growth Reduction (%) 14 Days After Application, CYPES
[11] = DIGSA: crabgrass (Digitaria sanguinalis), read-out: Visual Growth Reduction (%) 14 Days After Application, DIGSA
[12] = ECHCG: barnyardgrass (Echinochloa crus-galli), read-out: Visual Growth Reduction (%) 14 Days After Application, ECHCG
[13] = ORYSA: rice (Oryza sativa), crop, read-out: Visual Growth Reduction (%) 14 Days After Application, ORYSA
[14] = SETFA: giant foxtail (Setaria faberi), read-out: Visual Growth Reduction (%) 14 Days After Application, SETFA
[15] = SORVU: grain sorghum (Sorghum vulgare), read-out: Visual Growth Reduction (%) 14 Days After Application, SORVU
[16] = TRZSS (wheat, Triticum aestivum), crop, read-out: Visual Growth Reduction (%) 14 Days After Application, TRZSS
[17] = ZEAMX: maize, corn (Zea mays), crop, read-out: Visual Growth Reduction (%) 14 Days After Application, ZEAMX

| SMILES | pest or weed control at 70 g/ha [1, 3] [%] | pest or weed control at 140 g/ha [1, 3] [%] | pest or weed control at 70 g/ha [1, 4] [%] | pest or weed control at 140 g/ha [1, 4] [%] | pest or weed control at 70 g/ha [1, 5] [%] | pest or weed control at 140 g/ha [1, 5] [%] | pest or weed control at 70 g/ha [1, 6] [%] | pest or weed control at 140 g/ha [1, 6] [%] | pest or weed control at 70 g/ha [1, 7] [%] | pest or weed control at 140 g/ha [1, 7] [%] | pest or weed control at 70 g/ha [1, 8] [%] | pest or weed control at 140 g/ha [1, 8] [%] | pest or weed control at 70 g/ha [1, 9] [%] | pest or weed control at 140 g/ha [1, 9] [%] | pest or weed control at 70 g/ha [2, 10] [%] | pest or weed control at 140 g/ha [2, 10] [%] | pest or weed control at 70 g/ha [2, 11] [%] | pest or weed control at 140 g/ha [2, 11] [%] | pest or weed control at 70 g/ha [2, 12] [%] | pest or weed control at 140 g/ha [2, 12] [%] | also measured |
| --- | --- | --- | --- | --- | --- | --- | --- | --- | --- | --- | --- | --- | --- | --- | --- | --- | --- | --- | --- | --- | --- |
| COC(=O)c1nc(-c2ccc(Br)cc2)nc(N)c1OC [Compound 97] | 85 to 94 | 95 to 100 | 95 to 100 | 95 to 100 | 85 to 94 | 95 to 100 | 85 to 94 | 95 to 100 | 95 to 100 | 95 to 100 | 75 to 84 | 95 to 100 | 60 to 74 | 95 to 100 | 95 to 100 | 95 to 100 | 45 to 59 | 45 to 59 | 0 to 29 | 60 to 74 | pest or weed control at 70 g/ha [2, 13]: 0 to 29%; pest or weed control at 140 g/ha [2, 13]: 0 to 29%; pest or weed control at 70 g/ha [2, 14]: 0 to 29%; pest or weed control at 140 g/ha [2, 14]: 30 to 44%; pest or weed control at 70 g/ha [2, 15]: 0 to 29%; pest or weed control at 140 g/ha [2, 15]: 30 to 44%; pest or weed control at 70 g/ha [2, 16]: 30 to 44%; pest or weed control at 140 g/ha [2, 16]: 60 to 74%; pest or weed control at 70 g/ha [2, 17]: 95 to 100%; pest or weed control at 140 g/ha [2, 17]: 95 to 100% |
| COC(=O)c1nc(-c2ccc([N+](=O)[O-])cc2)c(F)c(N)c1Cl [Compound 95, methyl 4-amino-3-chloro-5-fluoro-6-(4-nitrophenyl)picolinate] | 60 to 74 | 75 to 84 | 95 to 100 | 95 to 100 | 0 to 29 | 30 to 44 | 95 to 100 | 95 to 100 | 95 to 100 | 95 to 100 | 95 to 100 | 95 to 100 | 0 to 29 | 0 to 29 | 45 to 59 | 75 to 84 | 0 to 29 | 0 to 29 | 85 to 94 | 95 to 100 | pest or weed control at 70 g/ha [2, 13]: 0 to 29%; pest or weed control at 140 g/ha [2, 13]: 0 to 29%; pest or weed control at 70 g/ha [2, 14]: 0 to 29%; pest or weed control at 140 g/ha [2, 14]: 0 to 29%; pest or weed control at 70 g/ha [2, 15]: 60 to 74%; pest or weed control at 140 g/ha [2, 15]: 60 to 74%; pest or weed control at 70 g/ha [2, 16]: 0 to 29%; pest or weed control at 140 g/ha [2, 16]: 0 to 29%; pest or weed control at 70 g/ha [2, 17]: 0 to 29%; pest or weed control at 140 g/ha [2, 17]: 0 to 29% |

Source: patent US9113629B2, “4-amino-6-(4-substituted-phenyl)-picolinates and 6-amino-2-(4-substituted-phenyl)-pyrimidine-4-carboxylates and their use as herbicides” (DOW AGROSCIENCES LLC, priority 2013, dated 2015)
